Source: PMC3757929 (Molecular pharmaceutics, 2013)
Read-outs that look alike come from different tables or passages of the source.

What was measured:
[1] = target: T1, prostate specific membrane antigen (PSMA) (Homo sapiens, UniProt Q04609); assay: competitive binding on LNCaP cells with […]-GPI radioligand; type: cell-based
[2] = target: T1, prostate specific membrane antigen (PSMA); assay: as above; type: cell-based; remark: listed apart in the source

T1 sequence (Q04609 whole entry): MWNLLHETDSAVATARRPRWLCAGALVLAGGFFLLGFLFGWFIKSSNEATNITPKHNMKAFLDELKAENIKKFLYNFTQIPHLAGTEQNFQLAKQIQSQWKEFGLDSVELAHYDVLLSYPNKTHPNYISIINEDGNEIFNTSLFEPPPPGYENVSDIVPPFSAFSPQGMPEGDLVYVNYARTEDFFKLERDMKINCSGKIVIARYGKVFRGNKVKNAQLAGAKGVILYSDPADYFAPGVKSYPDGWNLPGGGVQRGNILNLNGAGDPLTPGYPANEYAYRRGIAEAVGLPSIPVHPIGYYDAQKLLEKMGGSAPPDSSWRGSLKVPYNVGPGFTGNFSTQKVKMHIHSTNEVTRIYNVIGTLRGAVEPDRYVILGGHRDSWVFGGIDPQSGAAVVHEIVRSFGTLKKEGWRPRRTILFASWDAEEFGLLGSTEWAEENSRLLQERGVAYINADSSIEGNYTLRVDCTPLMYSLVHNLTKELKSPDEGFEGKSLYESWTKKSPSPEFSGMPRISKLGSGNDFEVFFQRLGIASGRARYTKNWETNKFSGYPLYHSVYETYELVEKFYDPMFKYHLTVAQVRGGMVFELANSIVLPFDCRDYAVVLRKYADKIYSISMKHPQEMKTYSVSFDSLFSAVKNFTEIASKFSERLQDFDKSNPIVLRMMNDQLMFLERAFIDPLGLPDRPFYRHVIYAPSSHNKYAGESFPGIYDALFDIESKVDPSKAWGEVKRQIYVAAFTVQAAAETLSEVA

| Structure (SMILES) | IC50 [1] [nM] | IC50 [2] [nM] |
| --- | --- | --- |
| NC(CCP(=O)(O)CC(CCC(=O)O)C(=O)O)C(=O)O (racemic) [GPI, 2[(3-amino-3-carboxypropyl)(hydroxy)(phosphinyl)-methyl]pentane-1,5-dioic acid] | 460 ± 13 | – |
| O=C(O)CCC(CP(=O)(O)CCC(NC(=O)CCC(C(=O)O)N1CCCN2CCN(CCCN(CC(=O)O)CC2)CC1)C(=O)O)C(=O)O (racemic) [H2CBT1G] | – | 578 ± 81 |
| O=C(O)CCC(CP(=O)(O)CCC(NC(=O)CCC(C(=O)O)N1CCCN2CCN(CCCN(C(CCC(=O)NC(CCP(=O)(O)CC(CCC(=O)O)C(=O)O)C(=O)O)C(=O)O)CC2)CC1)C(=O)O)C(=O)O (racemic) [H2CBT2G] | – | 129 ± 17 |
